Patent US20110038997A1, “Method of processing poultry and other meat to reduce or eliminate Salmonella” (Birko Corporation, priority 2007, published 2011)

Columns and labels:
Assay type in all cases: cell-based
Salmonella culture (M61) = experiment: Log kill of Salmonella M61 in suspension, acid treatment, quench and plating on Salmonella Shigella agar
Experimental: In each instance a target sample was employed using approximately 50 micro liters of a Salmonella culture (given the name “M61”) derived from a sample of chicken meal contaminated with chicken feces and approximately 1.5×10^7 cells per ml. […] The results obtained were consistent with the genus Salmonella.
(§1) The tests were performed at room temperature, e.g., 71 deg. […] The reaction was permitted to proceed for the time indicated for each test in Table 1, and was terminated by the introduction of a quench buffer comprising 4.2 M potassium phosphate buffer, pH 7.2. […] The plating medium was Salmonella Shigella agar, […]. The reduction in the bacteria count is expressed as the “log kill.” “Log kill” is generally defined as log10[initial cfu/ml]−log10[remaining cfu/ml].
An experiment was performed using the same protocol as in Example 1, except that the duration of treatment with the antimicrobial agent was maintained constant at 20 seconds. […] All tests were conducted at an ambient temperature of approximately 71 deg. F.
An experiment was performed using the same protocol as in Example 3. In this case, the target organism was a sample of “M61” Salmonella.

[1] = tested on: Salmonella enterica ATCC 14028; experiment: Log kill of Salmonella enterica ATCC 14028 in suspension, plating on tryptic soy agar; conditions: for Log Kill Salmonella (ATCC 14028) / Relative Kill Salmonella (ATCC 14028): 15 seconds
Experimental: as §1
Similar tests were performed using Salmonella enterica ATCC 14028 instead of the M61 Salmonella, and tryptic soy agar was employed instead of Salmonella Shigella agar.
The same tests were repeated using Salmonella enterica ATCC 14028 instead of the M61 Salmonella, and tryptic soy agar was employed instead of Salmonella Shigella agar.
The same tests were repeated using Salmonella enterica ATCC 14028 instead of Salmonella M61, and tryptic soy agar was employed instead of Salmonella shigella.
Another series of tests were performed as those resulting in Table VB, except that the acids were present in a total amount of 2%.

Escherichia coli (SAC-2) = experiment: Log kill of E. coli SAC-2 by lactic/citric acid mixtures; conditions: 2.5% acid, total; 15 seconds, 76 deg F
Experimental: (§2) The tests were performed at room temperature, e.g., 71 deg. F. A reaction mixture was prepared including the Salmonella, water and the aqueous solution of lactic acid. The reaction was permitted to proceed for the time indicated for each test in Table 1, and was terminated by the introduction of a quench buffer comprising 4.2 M potassium phosphate buffer, pH 7.2. The results of the test were evaluated using a series of 10-fold dilutions as needed to determine, on a standard plating agar, the titer of bacteria that survived the antimicrobial treatment. The plating medium was Salmonella Shigella agar, a medium that would allow the growth of most bacteria. The reduction in the bacteria count is expressed as the “log kill.” “Log kill” is generally defined as log10[initial cfu/ml]−log10[remaining cfu/ml].
An experiment was performed using the same protocol as in Example 1. In this case, the target bacteria was a sample of E. coli (given the name “SAC-2”) taken from a local sewer facility. The isolate was characterized using standard microbiological methods including selective and indicative culture media and other metabolic tests. The results obtained were consistent with E. coli.
(§3) The duration of treatment was 15 seconds at an ambient temperature of 76 deg F.

[2] = tested on: Escherichia coli (ATCC 12435); experiment: Log kill of E. coli ATCC 12435 by lactic/citric acid mixtures; conditions: 2.5% acid, total; 15 seconds, 76 deg F
Experimental: as §2, §3
The same tests were repeated using E. coli ATCC 12435 instead of the SAC-2 E. coli, and tryptic soy agar was employed instead of Salmonella Shigella agar.

**Q.** Which results are given for `O=C(O)CC(O)(CC(=O)O)C(=O)O` [citric acid]?
**A.** Salmonella (M61) Log Kill (Salmonella culture (M61); 2.5 wt % aqueous solution, 80 sec., room temperature 71 deg. F): 0.29 log kill; performance compared to that of lactic acid, Salmonella M61 log kill (Salmonella culture (M61); 2.5 wt. % solution, 80 seconds): poor; Log Kill Salmonella (ATCC 14028) ([1]; 2.0% total acid): 0.444; Relative Kill Salmonella (ATCC 14028) ([1]; 2.0% total acid, 40/40 = 1): 0.663; Citric Acid Efficacy Log kill (75 F., 20 sec) ([1]; 2.5 % citric acid, Salmonella ATCC 14028, 75 F., 20 sec): 0.555; Salmonella (ATCC 14028) Log Kill ([1]; 2.5 wt % aqueous solution, 15 sec.): 0.56 log kill; Log Kill Salmonella (ATCC 14028) ([1]; […] total acid): 0.322; Relative Kill Salmonella (ATCC 14028) ([1]; […] total acid, 80/0 = 1): 0.422

**Q.** Which “Log Kill Escherichia coli (SAC-2)” value (Escherichia coli (SAC-2)) does the source give for `CC(O)C(=O)O` (stereo not shown) [lactic acid] here?
**A.** 0.953

**Q.** And the “Log Kill Escherichia coli (ATCC 12435)” value [2]?
**A.** 1.93
